Assays:
Type in all cases: biochemical
[1] = test system: Recombinant Coprinus cinereus laccase (rCcL); experiment: Bleaching of methyl orange using rCcL and NOH-type enhancing agents (initial bleaching rate); conditions: rCcL solution diluted 1:200, 0.2 mM mediator, 30° C., large negative numbers = best performance
Experimental: (§1) Britton-Robinson buffer is composed of:
(§2) Methyl orange (Merck, Germany)
(§3) Reactions were started by addition of enzyme. Absorbance at 464 nm was followed for 3 minutes (readings every 5 seconds) on a Cobas Fara at 30° C. Initial bleaching rates were determined from the first linear part of the progress curves.
(§4) The N—OH compounds listed above were tested as laccase mediators in bleaching of methyl orange with three recombinant laccases (rPpL, rMtL and rCcL) at various pH values. Large negative numbers represent the best performance.

[2] = test system: Recombinant Myceliophthora thermophila laccase (rMtL); experiment: Bleaching of methyl orange using rMtL and NOH-type enhancing agents (initial bleaching rate); conditions: rMtL solution diluted 1:300, 0.2 mM mediator, 30° C., large negative numbers = best performance
Experimental: as §1, §2, §3, §4

[3] = target: T1, Polyporus pinsitus laccase (Trametes villosa, UniProt Q99044); experiment: Bleaching of methyl orange using rPpL and NOH-type enhancing agents (initial bleaching rate); conditions: rPpL solution diluted 1:200, 0.2 mM mediator, 30° C., large negative numbers = best performance
T1 construct: made in house
T1 sequence (Q99044 22-520): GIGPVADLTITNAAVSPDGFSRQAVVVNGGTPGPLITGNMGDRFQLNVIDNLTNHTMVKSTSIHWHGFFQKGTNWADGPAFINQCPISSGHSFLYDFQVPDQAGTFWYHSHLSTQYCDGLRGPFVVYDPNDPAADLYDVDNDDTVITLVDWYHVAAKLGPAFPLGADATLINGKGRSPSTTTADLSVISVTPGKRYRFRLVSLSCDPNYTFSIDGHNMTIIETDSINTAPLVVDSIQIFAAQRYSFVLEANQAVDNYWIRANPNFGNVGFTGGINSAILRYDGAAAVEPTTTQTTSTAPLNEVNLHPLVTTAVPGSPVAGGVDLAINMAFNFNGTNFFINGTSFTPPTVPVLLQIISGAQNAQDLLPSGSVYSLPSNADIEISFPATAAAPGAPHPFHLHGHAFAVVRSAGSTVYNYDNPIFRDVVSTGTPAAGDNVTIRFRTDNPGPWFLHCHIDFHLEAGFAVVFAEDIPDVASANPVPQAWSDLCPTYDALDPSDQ
Experimental: as §1, §2, §3, §4

## O=c1[nH]c(=O)[nH]c(=O)[nH]1 [Cyanuric acid]
[1]; pH 4
  Initial changes per minute in A464 nm of methyl orange using rCcL: −0.005 per minute
[1]; pH 5
  Initial changes per minute in A464 nm of methyl orange using rCcL: −0.008 per minute
[1]; pH 6
  Initial changes per minute in A464 nm of methyl orange using rCcL: −0.012 per minute
[1]; pH 7
  Initial changes per minute in A464 nm of methyl orange using rCcL: −0.012 per minute
[1]; pH 8
  Initial changes per minute in A464 nm of methyl orange using rCcL: −0.005 per minute
[2]; pH 4
  Initial changes per minute in A464 nm of methyl orange using rMtL: −0.013 per minute
[2]; pH 5
  Initial changes per minute in A464 nm of methyl orange using rMtL: 0.010 per minute
[2]; pH 6
  Initial changes per minute in A464 nm of methyl orange using rMtL: −0.002 per minute
[2]; pH 7
  Initial changes per minute in A464 nm of methyl orange using rMtL: 0.000 per minute
[3]; pH 4
  Initial changes per minute in A464 nm of methyl orange using rPpL: −0.037 per minute
[3]; pH 5
  Initial changes per minute in A464 nm of methyl orange using rPpL: −0.022 per minute
[3]; pH 6
  Initial changes per minute in A464 nm of methyl orange using rPpL: −0.011 per minute
[3]; pH 7
  Initial changes per minute in A464 nm of methyl orange using rPpL: −0.002 per minute

## [O-][n+]1ccc2ccccc2c1 [Iso-quinoline-N-oxide]
[1]; pH 4
  Initial changes per minute in A464 nm of methyl orange using rCcL: −0.002 per minute
[1]; pH 5
  Initial changes per minute in A464 nm of methyl orange using rCcL: −0.005 per minute
[1]; pH 6
  Initial changes per minute in A464 nm of methyl orange using rCcL: −0.008 per minute
[1]; pH 7
  Initial changes per minute in A464 nm of methyl orange using rCcL: −0.010 per minute
[1]; pH 8
  Initial changes per minute in A464 nm of methyl orange using rCcL: −0.004 per minute
[2]; pH 4
  Initial changes per minute in A464 nm of methyl orange using rMtL: −0.017 per minute
[2]; pH 5
  Initial changes per minute in A464 nm of methyl orange using rMtL: −0.010 per minute
[2]; pH 6
  Initial changes per minute in A464 nm of methyl orange using rMtL: −0.004 per minute
[2]; pH 7
  Initial changes per minute in A464 nm of methyl orange using rMtL: 0.000 per minute
[3]; pH 4
  Initial changes per minute in A464 nm of methyl orange using rPpL: −0.074 per minute
[3]; pH 5
  Initial changes per minute in A464 nm of methyl orange using rPpL: −0.037 per minute
[3]; pH 6
  Initial changes per minute in A464 nm of methyl orange using rPpL: −0.014 per minute
[3]; pH 7
  Initial changes per minute in A464 nm of methyl orange using rPpL: −0.002 per minute

## On1nnc2ccccc21 [1-hydroxybenzotriazole, 1-Hydroxybenzotriazole]
[1]; pH 4
  Initial changes per minute in A464 nm of methyl orange using rCcL: −0.016 per minute
[1]; pH 5
  Initial changes per minute in A464 nm of methyl orange using rCcL: −0.018 per minute
[1]; pH 6
  Initial changes per minute in A464 nm of methyl orange using rCcL: −0.019 per minute
[1]; pH 7
  Initial changes per minute in A464 nm of methyl orange using rCcL: −0.017 per minute
[1]; pH 8
  Initial changes per minute in A464 nm of methyl orange using rCcL: −0.005 per minute
[2]; pH 4
  Initial changes per minute in A464 nm of methyl orange using rMtL: −0.050 per minute
[2]; pH 5
  Initial changes per minute in A464 nm of methyl orange using rMtL: −0.019 per minute
[2]; pH 6
  Initial changes per minute in A464 nm of methyl orange using rMtL: −0.007 per minute
[2]; pH 7
  Initial changes per minute in A464 nm of methyl orange using rMtL: −0.002 per minute
[3]; pH 4
  Initial changes per minute in A464 nm of methyl orange using rPpL: −0.206 per minute
[3]; pH 5
  Initial changes per minute in A464 nm of methyl orange using rPpL: −0.077 per minute
[3]; pH 6
  Initial changes per minute in A464 nm of methyl orange using rPpL: −0.017 per minute
[3]; pH 7
  Initial changes per minute in A464 nm of methyl orange using rPpL: −0.005 per minute

## ON=C(c1ccccn1)c1ccccn1 [di-2-pyridylketone oxime]
[1]; pH 4
  Initial changes per minute in A464 nm of methyl orange using rCcL: −0.004 per minute
[1]; pH 5
  Initial changes per minute in A464 nm of methyl orange using rCcL: −0.006 per minute
[1]; pH 6
  Initial changes per minute in A464 nm of methyl orange using rCcL: −0.008 per minute
[1]; pH 7
  Initial changes per minute in A464 nm of methyl orange using rCcL: −0.006 per minute
[1]; pH 8
  Initial changes per minute in A464 nm of methyl orange using rCcL: −0.001 per minute
[2]; pH 4
  Initial changes per minute in A464 nm of methyl orange using rMtL: −0.026 per minute
[2]; pH 5
  Initial changes per minute in A464 nm of methyl orange using rMtL: −0.010 per minute
[2]; pH 6
  Initial changes per minute in A464 nm of methyl orange using rMtL: −0.001 per minute
[2]; pH 7
  Initial changes per minute in A464 nm of methyl orange using rMtL: 0.001 per minute
[3]; pH 4
  Initial changes per minute in A464 nm of methyl orange using rPpL: −0.124 per minute
[3]; pH 5
  Initial changes per minute in A464 nm of methyl orange using rPpL: −0.107 per minute
[3]; pH 6
  Initial changes per minute in A464 nm of methyl orange using rPpL: −0.053 per minute
[3]; pH 7
  Initial changes per minute in A464 nm of methyl orange using rPpL: −0.005 per minute

## CS(=O)(=O)c1ccc2ccn(OC(=O)c3ccccc3)c2c1 [PFC-202, Benzoic acid[6-(methylsulphonyl)indol-1-yl]ester]
[1]; pH 4
  Initial changes per minute in A464 nm of methyl orange using rCcL: −0.005 per minute
[1]; pH 5
  Initial changes per minute in A464 nm of methyl orange using rCcL: −0.010 per minute
[1]; pH 6
  Initial changes per minute in A464 nm of methyl orange using rCcL: −0.016 per minute
[1]; pH 7
  Initial changes per minute in A464 nm of methyl orange using rCcL: 0.000 per minute
[1]; pH 8
  Initial changes per minute in A464 nm of methyl orange using rCcL: 0.011 per minute
[2]; pH 4
  Initial changes per minute in A464 nm of methyl orange using rMtL: −0.020 per minute
[2]; pH 5
  Initial changes per minute in A464 nm of methyl orange using rMtL: −0.017 per minute
[2]; pH 6
  Initial changes per minute in A464 nm of methyl orange using rMtL: 0.001 per minute
[2]; pH 7
  Initial changes per minute in A464 nm of methyl orange using rMtL: 0.005 per minute
[3]; pH 4
  Initial changes per minute in A464 nm of methyl orange using rPpL: −0.047 per minute
[3]; pH 5
  Initial changes per minute in A464 nm of methyl orange using rPpL: −0.035 per minute
[3]; pH 6
  Initial changes per minute in A464 nm of methyl orange using rPpL: −0.001 per minute
[3]; pH 7
  Initial changes per minute in A464 nm of methyl orange using rPpL: 0.000 per minute

## O=C(c1ccccc1)N(O)c1ccccc1 [N-benzoyl-N-phenylhydroxylamine, N-Benzoyl-N-phenylhydroxylamine]
[1]; pH 4
  Initial changes per minute in A464 nm of methyl orange using rCcL: −0.163 per minute
[1]; pH 5
  Initial changes per minute in A464 nm of methyl orange using rCcL: −0.247 per minute
[1]; pH 6
  Initial changes per minute in A464 nm of methyl orange using rCcL: −0.529 per minute
[1]; pH 7
  Initial changes per minute in A464 nm of methyl orange using rCcL: −0.592 per minute
[1]; pH 8
  Initial changes per minute in A464 nm of methyl orange using rCcL: −0.124 per minute
[2]; pH 4
  Initial changes per minute in A464 nm of methyl orange using rMtL: −0.269 per minute
[2]; pH 5
  Initial changes per minute in A464 nm of methyl orange using rMtL: −0.296 per minute
[2]; pH 6
  Initial changes per minute in A464 nm of methyl orange using rMtL: −0.082 per minute
[2]; pH 7
  Initial changes per minute in A464 nm of methyl orange using rMtL: −0.012 per minute
[3]; pH 4
  Initial changes per minute in A464 nm of methyl orange using rPpL: −0.732 per minute
[3]; pH 5
  Initial changes per minute in A464 nm of methyl orange using rPpL: −1.402 per minute
[3]; pH 6
  Initial changes per minute in A464 nm of methyl orange using rPpL: −0.420 per minute
[3]; pH 7
  Initial changes per minute in A464 nm of methyl orange using rPpL: −0.012 per minute

## O=c1c2ccccc2nnn1O [3-hydroxy-1,2,3-benzotriazin-4(3H)-one, 3-Hydroxy-1,2,3-benzotriazin-4(3H)-one]
[1]; pH 4
  Initial changes per minute in A464 nm of methyl orange using rCcL: 0.004 per minute
[1]; pH 5
  Initial changes per minute in A464 nm of methyl orange using rCcL: −0.004 per minute
[1]; pH 6
  Initial changes per minute in A464 nm of methyl orange using rCcL: −0.011 per minute
[1]; pH 7
  Initial changes per minute in A464 nm of methyl orange using rCcL: −0.008 per minute
[1]; pH 8
  Initial changes per minute in A464 nm of methyl orange using rCcL: −0.002 per minute
[2]; pH 4
  Initial changes per minute in A464 nm of methyl orange using rMtL: −0.016 per minute
[2]; pH 5
  Initial changes per minute in A464 nm of methyl orange using rMtL: −0.011 per minute
[2]; pH 6
  Initial changes per minute in A464 nm of methyl orange using rMtL: −0.001 per minute
[2]; pH 7
  Initial changes per minute in A464 nm of methyl orange using rMtL: 0.002 per minute
[3]; pH 4
  Initial changes per minute in A464 nm of methyl orange using rPpL: −0.020 per minute
[3]; pH 5
  Initial changes per minute in A464 nm of methyl orange using rPpL: −0.020 per minute
[3]; pH 6
  Initial changes per minute in A464 nm of methyl orange using rPpL: −0.008 per minute
[3]; pH 7
  Initial changes per minute in A464 nm of methyl orange using rPpL: 0.000 per minute
